Results taken from ChEMBL document CHEMBL1132313, “32-Indolyl ether derivatives of ascomycin: three-dimensional structures of complexes with FK506-binding protein” (J Med Chem, 1999).
pIC50: −log10 of the molar value.

Experiments:
T-cell = assay: Compound was evaluated for inhibition of T-cell proliferation induced by PMA-ionomycin.; type: functional
[1] = Inhibition of calcineurin phosphatase activity by the compound
[2] = Relative binding affinity of compound for FK-506 binding protein (FKBP)
[3] = Off-rate of FK-506 binding protein (FKBP) drug complex from their complexes with calcineurin.; type: ADME
[4] = Relative binding affinity of compound for FK506 binding protein (FKBP)

| pIC50 [1] | pIC50 [2] | Off-rate [3] [min] | pIC50 [4] | SMILES | T-cell proliferation inhibition (T-cell) [nM] |
| --- | --- | --- | --- | --- | --- |
| 7.10 | – | – | – | CC[C@@H]1/C=C(/C)[C@@H](O)[C@H](C)C[C@H](OC)C2O[C@@](O)(C(=O)C(=O)N3CCCC[C@H]3C(=O)O[C@H](/C(C)=C/[C@@H]3CC[C@@H](Oc4ccc5c(ccn5C)c4)[C@H](OC)C3)[C@H](C)[C@@H](O)CC1=O)[C@H](C)C[C@@H]2OC | 5.1 |
| 8.09 | 7.57 | – | – | CC[C@@H]1/C=C(/C)C[C@H](C)C[C@H](OC)C2O[C@@](O)(C(=O)C(=O)N3CCCC[C@H]3C(=O)O[C@H](/C(C)=C/[C@@H]3CC[C@@H](Oc4ccc5c(ccn5CC)c4)[C@H](OC)C3)[C@H](C)[C@@H](O)CC1=O)[C@H](C)C[C@@H]2OC | 0.78 |
| 5.60 | 9.15 | – | – | CC[C@@H]1/C=C(/C)[C@@H](O)[C@@H](C)C[C@H](OC)[C@H]2O[C@@](O)(C(=O)C(=O)N3CCCC[C@H]3C(=O)O[C@H](/C(C)=C/[C@@H]3CC[C@@H](O)[C@H](OC)C3)[C@H](C)[C@@H](O)CC1=O)[C@H](C)C[C@@H]2OC | – |
| 7.94 | 8.30 | 254 | – | CC[C@@H]1/C=C(/C)C[C@H](C)C[C@H](OC)C2O[C@@](O)(C(=O)C(=O)N3CCCC[C@H]3C(=O)O[C@H](/C(C)=C/[C@@H]3CC[C@@H](Oc4ccc5c(ccn5CCO)c4)[C@H](OC)C3)[C@H](C)[C@@H](O)CC1=O)[C@H](C)C[C@@H]2OC | 0.19 |
| 7.95 | – | 15.1 | 9.41 | C=CC[C@@H]1C=C(C)CC(C)C[C@H](OC)[C@H]2O[C@@](O)(C(=O)C(=O)N3CCCC[C@H]3C(=O)O[C@H](/C(C)=C/[C@@H]3CC[C@@H](O)[C@H](OC)C3)[C@H](C)[C@@H](O)CC1=O)[C@H](C)C[C@@H]2OC (single isomer, unassigned) [TACROLIMUS ANHYDROUS] | 0.3 |
